# According to patent US6643591B1, “Use of computational and experimental data to model organic compound reactivity in cytochrome P450 mediated reactions and to optimize the design of pharmaceuticals” (University of Pittsburgh, priority 1998, dated 2003):
# Legend:
# CYP = assay: Experimental product ratios for aromatic oxidation; settings: Arom/benz
# Source text: These equations may be solved with the data in Table 4, which provides experimental data for aromatic oxidation reactions with a number of substrates.
# Experimental metabolite ratios may also be used to parameterize the aromatic oxidation reaction in a theoretical model for CYP reactions. As with hydrogen atom abstraction discussed in the previous Examples, experimental ratios of aromatic oxidation to an alternate position may be determined using various CYP enzymes. These substrates were chosen based on their small size, the presence of an alternate position for metabolism, and their hydrophobicity.
# In order for the substrates to be useful, the average of the rotation rates in the active sites should be rapid. […] Several human expressed CYP enzymes were used in these studies, including CYP1A1, 1A2, 2A6, 2B6, 2C8, 2C9, 2D6, 2E1, 3A4, and 3A5. The use of multiple enzymes insures that a reasonable average of any orientation preferences within the active site (see FIG. 1).
# CYP1A2 = target: T1, CYP1A2 (Homo sapiens, UniProt P05177); assay: in vitro
# T1 sequence (P05177 1-516): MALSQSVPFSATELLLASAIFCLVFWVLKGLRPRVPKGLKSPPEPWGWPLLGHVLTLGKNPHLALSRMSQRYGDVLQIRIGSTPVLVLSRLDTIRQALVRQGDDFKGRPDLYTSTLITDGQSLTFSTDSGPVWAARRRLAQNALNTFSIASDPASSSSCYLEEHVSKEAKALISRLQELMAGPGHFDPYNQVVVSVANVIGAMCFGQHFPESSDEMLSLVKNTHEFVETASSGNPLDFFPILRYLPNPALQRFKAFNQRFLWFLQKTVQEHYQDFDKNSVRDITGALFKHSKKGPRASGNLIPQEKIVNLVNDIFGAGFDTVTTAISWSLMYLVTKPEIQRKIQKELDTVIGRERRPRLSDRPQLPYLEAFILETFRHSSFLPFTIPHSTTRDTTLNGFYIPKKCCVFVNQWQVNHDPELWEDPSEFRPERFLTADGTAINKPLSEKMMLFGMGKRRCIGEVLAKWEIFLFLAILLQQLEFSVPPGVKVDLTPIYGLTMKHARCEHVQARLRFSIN
# CYP2B1 = target: T2, CYP2B1 (Rattus norvegicus, UniProt P00176); assay: in vitro
# T2 sequence (P00176 1-491): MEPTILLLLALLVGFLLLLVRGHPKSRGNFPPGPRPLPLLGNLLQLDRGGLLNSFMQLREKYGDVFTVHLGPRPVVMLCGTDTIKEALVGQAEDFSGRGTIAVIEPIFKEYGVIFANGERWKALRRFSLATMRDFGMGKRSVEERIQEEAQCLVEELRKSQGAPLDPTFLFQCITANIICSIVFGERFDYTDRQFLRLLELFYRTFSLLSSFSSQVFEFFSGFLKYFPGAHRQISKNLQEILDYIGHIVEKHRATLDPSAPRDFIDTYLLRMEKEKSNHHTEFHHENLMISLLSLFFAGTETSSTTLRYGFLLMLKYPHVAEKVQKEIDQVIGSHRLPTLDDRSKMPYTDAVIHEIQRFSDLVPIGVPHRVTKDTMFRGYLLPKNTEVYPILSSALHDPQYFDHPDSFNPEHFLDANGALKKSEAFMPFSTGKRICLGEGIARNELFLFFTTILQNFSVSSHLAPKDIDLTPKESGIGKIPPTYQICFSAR
# CYP2B6 [1] = target: T3, CYP2B6 (Homo sapiens, UniProt P20813); assay: in vitro
# T3 sequence (P20813 1-491): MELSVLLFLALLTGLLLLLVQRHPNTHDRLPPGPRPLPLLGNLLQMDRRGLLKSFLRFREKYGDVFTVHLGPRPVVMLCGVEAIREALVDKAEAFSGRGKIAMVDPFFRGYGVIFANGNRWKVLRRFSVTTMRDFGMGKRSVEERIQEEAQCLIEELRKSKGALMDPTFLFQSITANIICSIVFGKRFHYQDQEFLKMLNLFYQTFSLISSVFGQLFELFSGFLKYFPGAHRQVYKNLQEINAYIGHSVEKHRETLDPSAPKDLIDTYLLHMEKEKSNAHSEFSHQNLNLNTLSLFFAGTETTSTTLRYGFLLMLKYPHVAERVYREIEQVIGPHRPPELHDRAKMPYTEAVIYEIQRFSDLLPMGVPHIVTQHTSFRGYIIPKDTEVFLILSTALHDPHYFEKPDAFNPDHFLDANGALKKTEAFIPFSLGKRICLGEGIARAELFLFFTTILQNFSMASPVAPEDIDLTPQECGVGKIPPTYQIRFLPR
# CYP2E1 = CYP2E1 (Homo sapiens, UniProt P05181); assay: in vitro
# P450cam = target: T4, P450cam (Pseudomonas putida, UniProt P00183); assay: Intramolecular isotope effects with purified P450cam; type: in vitro ADME, bacterial; settings: benzylic hydroxylation, -CH2D (d1) substrate
# T4 construct: made in house
# Method: For the intramolecular isotope effect experiments herein, a substrate is chosen that contains at least two symmetrical sites, with at least one site, but not all, isotopically labeled. A single concentration of substrate is incubated with enzyme, and the ratio of labeled to unlabeled compound in the isotopic mixture of products (or the corresponding rates of formation of products) are used to calculate a KIE.
# Construction of expression plasmids for P450cam, Pd, and PdR as well as protein expression and purification have been described previously (Shimoji et al. (1998) Biochemistry 37, 8848-52).
# Enzyme incubations with monodeuterated toluenes and p-xylene-α-^2H1-α′-^2H1 were performed in triplicate at a single substrate concentration of 0.25 mM. […] The kinetic parameters for metabolism of the substituted toluenes were determined by GC-MS analysis of the M-(dimethylsilyl) derivative of the product benzyl alcohols (see below).
# CYP2B6 [2] = target: T3, CYP2B6; assay: Regioselectivity and inter-/intramolecular KIE for 4-methylanisole (Table 15); type: in vitro ADME
# CYP2C9 = CYP2C9 (Homo sapiens, UniProt P11712); assay: as above; type: in vitro ADME
# [3] = pH 7.4, Regioselectivity BzH:Arom
# [4] = pH 7.4, Regioselectivity BzH:ODAlk
# CYP2C9, sequence (P11712 whole entry): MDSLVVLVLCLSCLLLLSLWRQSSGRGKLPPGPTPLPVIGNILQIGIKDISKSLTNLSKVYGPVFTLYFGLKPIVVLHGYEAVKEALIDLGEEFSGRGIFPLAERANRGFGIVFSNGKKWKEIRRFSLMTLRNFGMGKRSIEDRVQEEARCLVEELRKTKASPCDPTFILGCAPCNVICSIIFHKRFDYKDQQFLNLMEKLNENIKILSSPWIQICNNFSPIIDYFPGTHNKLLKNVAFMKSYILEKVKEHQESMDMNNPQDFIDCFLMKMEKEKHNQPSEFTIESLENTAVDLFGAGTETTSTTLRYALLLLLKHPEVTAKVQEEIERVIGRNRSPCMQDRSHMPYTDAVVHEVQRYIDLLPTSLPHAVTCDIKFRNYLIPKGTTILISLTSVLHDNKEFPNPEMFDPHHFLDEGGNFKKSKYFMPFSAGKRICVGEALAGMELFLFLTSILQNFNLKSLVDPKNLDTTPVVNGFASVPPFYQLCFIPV
# CYP2E1, sequence (P05181 whole entry): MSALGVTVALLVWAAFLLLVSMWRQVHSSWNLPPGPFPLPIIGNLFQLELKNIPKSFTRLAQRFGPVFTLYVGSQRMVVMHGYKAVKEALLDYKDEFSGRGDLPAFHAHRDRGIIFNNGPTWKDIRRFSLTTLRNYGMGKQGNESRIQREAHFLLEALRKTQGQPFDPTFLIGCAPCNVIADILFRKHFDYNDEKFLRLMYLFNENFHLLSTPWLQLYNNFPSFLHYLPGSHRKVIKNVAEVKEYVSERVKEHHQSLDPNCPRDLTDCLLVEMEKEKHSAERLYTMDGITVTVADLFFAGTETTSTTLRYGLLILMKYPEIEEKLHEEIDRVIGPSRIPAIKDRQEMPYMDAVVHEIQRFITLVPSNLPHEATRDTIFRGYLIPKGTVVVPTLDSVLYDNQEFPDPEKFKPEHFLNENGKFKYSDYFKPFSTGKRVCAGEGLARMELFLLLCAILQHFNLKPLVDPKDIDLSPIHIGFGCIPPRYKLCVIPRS
# T4 sequence (P00183 2-415): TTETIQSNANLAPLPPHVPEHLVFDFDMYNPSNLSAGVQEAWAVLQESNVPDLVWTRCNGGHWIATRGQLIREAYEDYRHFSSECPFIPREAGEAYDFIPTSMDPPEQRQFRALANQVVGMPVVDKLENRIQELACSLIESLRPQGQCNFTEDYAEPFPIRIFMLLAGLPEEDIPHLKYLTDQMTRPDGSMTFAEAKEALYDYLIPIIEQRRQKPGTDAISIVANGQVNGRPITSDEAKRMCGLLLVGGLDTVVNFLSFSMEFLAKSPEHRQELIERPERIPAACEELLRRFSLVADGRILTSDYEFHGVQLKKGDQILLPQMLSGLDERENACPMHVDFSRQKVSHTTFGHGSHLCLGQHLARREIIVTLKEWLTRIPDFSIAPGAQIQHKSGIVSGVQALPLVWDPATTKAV
smiles,measurement,setting,value
"COc1ccccc1C [o-Methylanisole, o-methylanisole]",Experimental Ratio,CYP,1.76
same,selectivity ratio,CYP1A2; [3],0.63
same,selectivity ratio,CYP1A2; [4],2.9
same,selectivity ratio,CYP2B1; [3],0.31
same,selectivity ratio,CYP2B1; [4],1.2
same,selectivity ratio,CYP2B6 [1]; [3],2
same,selectivity ratio,CYP2B6 [1]; [4],0.52
same,selectivity ratio,CYP2E1; [3],0.48
same,selectivity ratio,CYP2E1; [4],1.6
"COc1ccc(C)cc1 [p-Methylanisole, p-methylanisole]",Intramolecular KIE (kH/kD),P450cam,4.44
same,Intermolecular KIE,CYP2B6 [2]; CYP2B6 (Table 15),7.60
same,Intramolecular KIE,CYP2B6 [2]; CYP2B6 (Table 15),4.58
same,δΔG^†,"CYP2B6 [2]; CYP2B6, benzylic oxidation vs O-dealkylation",3.6 kJ/mol
same,Intermolecular KIE,CYP2C9; CYP2C9 (Table 15),3.52
same,Intramolecular KIE,CYP2C9; CYP2C9 (Table 15),3.92
same,δΔG^†,"CYP2C9; CYP2C9, benzylic oxidation vs O-dealkylation",7.82 kJ/mol
